Target: T1, FXR (Homo sapiens, UniProt Q96RI1)
T1 construct: expressed in transfected cells; host or cells: CV-1 cells
T1 sequence (Q96RI1 1-486): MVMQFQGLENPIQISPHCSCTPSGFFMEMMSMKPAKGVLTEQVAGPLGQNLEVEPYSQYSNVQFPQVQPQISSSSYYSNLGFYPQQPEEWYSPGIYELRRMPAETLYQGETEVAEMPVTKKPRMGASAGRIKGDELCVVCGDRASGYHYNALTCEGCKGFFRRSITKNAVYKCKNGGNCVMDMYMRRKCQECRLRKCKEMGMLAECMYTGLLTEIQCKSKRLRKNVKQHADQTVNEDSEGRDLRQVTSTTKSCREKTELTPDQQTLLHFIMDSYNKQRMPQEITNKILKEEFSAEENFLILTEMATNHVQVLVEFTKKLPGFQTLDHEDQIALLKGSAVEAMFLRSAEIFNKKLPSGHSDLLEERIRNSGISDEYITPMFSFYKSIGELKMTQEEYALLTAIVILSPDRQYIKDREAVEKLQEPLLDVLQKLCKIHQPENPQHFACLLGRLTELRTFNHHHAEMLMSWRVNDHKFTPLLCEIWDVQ
T1 sequence (P19793 1-462 partner): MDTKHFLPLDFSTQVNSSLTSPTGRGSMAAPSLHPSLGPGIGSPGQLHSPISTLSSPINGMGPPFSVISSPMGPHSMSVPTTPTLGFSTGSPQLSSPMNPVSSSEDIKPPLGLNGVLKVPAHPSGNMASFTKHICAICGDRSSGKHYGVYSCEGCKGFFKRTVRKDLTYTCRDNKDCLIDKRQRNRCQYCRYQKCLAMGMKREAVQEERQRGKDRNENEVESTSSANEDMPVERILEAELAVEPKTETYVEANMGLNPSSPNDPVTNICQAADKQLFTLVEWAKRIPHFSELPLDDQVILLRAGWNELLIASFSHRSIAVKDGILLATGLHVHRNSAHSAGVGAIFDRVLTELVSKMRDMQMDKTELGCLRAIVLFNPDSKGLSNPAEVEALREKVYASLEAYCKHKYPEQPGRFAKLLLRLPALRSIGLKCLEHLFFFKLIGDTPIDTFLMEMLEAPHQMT
Test: In Vitro FXR Assay (TK): TK-ECRE-luc reporter in transfected CV-1 cells
Format: cell-based
Conditions: CV-1 cells transfected with hFXR, hRXR, 18 h incubation, luminescence
Experimental: Example B-2: In Vitro FXR Assay (TK)
CV-1 cells were seeded at a density of 2,000,000 cells in a T175 flask with DMEM+10% charcoal double-stripped FBS and incubated at 37° C. in 5% CO2 for 18 h (O/N).
After 18 h of incubation, the medium in the T175 flask was changed with fresh DMEM+10% charcoal super-stripped serum. In a polypropylene tube, 2500 μL OptiMEM (Life Technologies, Cat #31985-062) was combined with expression plasmids for hFXR, hRXR, TK-ECRE-luc and pCMX-YFP. The tube was then briefly vortexed and incubated at room temperature for 5 minutes. Transfection reagent (X-tremeGENE HP from Roche, Cat #06 366 236 001) was added to the OptiMEM/plasmid mixture vortexed and incubated at room temperature for 20 minutes. Following incubation, the transfection reagent/DNA mixture complex was added to cells in the T175 flask and the cells were incubated at 37° C. in 5% CO2 for 18 h (O/N).
Compounds were serially diluted in DMSO and added to transfected CV-1 cells. The cells were then incubated for 18 hrs. The next day cells were lysed and examined for luminescence.

Compound | EC50
COC(=O)/C=C/c1cccc(N(Cc2ccc(-c3ccc(N(C)C)cc3)cc2)C(=O)[C@@H]2CCCC[C@H]2O)c1 (relative stereo) [13.25, trans-(E)-Methyl 3-(3-(N-((4′-(dimethylamino)-[1,1′-biphenyl]-4-yl)methyl)-2-hydroxycyclohexanecarboxamido)phenyl)acrylate] | 1000 to 10000 nM
COC(=O)/C=C/c1cccc(N(Cc2ccc(-c3ccc(N(C)C)cc3)cc2)C(=O)[C@@H]2CCCC[C@@H]2O)c1 (relative stereo) [13.26, cis-(E)-Methyl 3-(3-(N-((4′-(dimethylamino)-[1,1′-biphenyl]-4-yl)methyl)-2-hydroxycyclohexanecarboxamido)phenyl)acrylate] | 1000 to 10000 nM
COC(=O)/C=C/c1cccc(N(Cc2ccc(-c3ccc(N(C)C)cc3)cc2)C(=O)[C@@H]2CCC[C@H](O)C2)c1 (relative stereo) [13.27, cis-(E)-Methyl 3-(3-(N-((4′-(dimethylamino)-[1,1′-biphenyl]-4-yl)methyl)-3-hydroxycyclohexanecarboxamido)phenyl)acrylate] | ≤ 1000 nM
COC(=O)/C=C/c1cccc(N(Cc2ccc(-c3ccc(N(C)C)cc3)cc2)C(=O)[C@@H]2CCC[C@@H](O)C2)c1 (relative stereo) [13.28, trans-(E)-Methyl 3-(3-(N-((4′-(dimethylamino)-[1,1′-biphenyl]-4-yl)methyl)-3-hydroxycyclohexanecarboxamido)phenyl)acrylate] | > 10000 nM
COC(=O)/C=C/c1cccc(N(Cc2ccc(-c3ccc(N(C)C)cc3)cc2)C(=O)c2ccc(F)c(F)c2)c1 [13.1, (E)-Methyl 3-(3-(N-((4′-(dimethylamino)-[1,1′-biphenyl]-4-yl)methyl)-3,4-difluorobenzamido)phenyl)acrylate] | 1000 to 10000 nM
COC(=O)/C=C/c1cccc(N(Cc2ccc(-c3ccc(N(C)C)cc3)cc2)C(=O)c2ccc(F)cc2)c1 [13.2, (E)-Methyl 3-(3-(N-((4′-(dimethylamino)-[1,1′-biphenyl]-4-yl)methyl)-4-fluorobenzamido)phenyl)acrylate] | 1000 to 10000 nM
COC(=O)/C=C/c1cccc(N(Cc2ccc(-c3ccc(N(C)C)cc3)cc2)C(=O)C2(C)CCCCC2)c1 [13.3, (E)-Methyl 3-(3-(N-((4′-(dimethylamino)-[1,1′-biphenyl]-4-yl)methyl)-1-methylcyclohexane-carboxamido)phenyl)acrylate] | 1000 to 10000 nM
COC(=O)/C=C/c1cc(F)cc(N(Cc2ccc(-c3ccc(N(C)C)cc3)cc2)C(=O)C2CCCCC2)c1 [13.4, (E)-Methyl 3-(3-(N-((4′-(dimethylamino)-[1,1′-biphenyl]-4-yl)methyl)cyclohexanecarboxamido)-5-fluorophenyl)acrylate] | ≤ 1000 nM
COC(=O)/C=C/c1cc(F)cc(N(Cc2ccc(-c3ccc(N(C)C)cc3)cc2)C(=O)C2CC3CCC2C3)c1 (stereo not shown) [13.5, (E)-Methyl 3-(3-(N-((4′-(dimethylamino)-[1,1′-biphenyl]-4-yl)methyl)bicyclo[2.2.1]heptane-2-carboxamido)-5-fluorophenyl)acrylate] | ≤ 1000 nM
COC(=O)/C=C/c1cccc(N(Cc2ccc(-c3ccc(N(C)C)cc3)cc2)C(=O)C2(C)CCOCC2)c1 [13.6, (E)-Methyl 3-(3-(N-((4′-(dimethylamino)-[1,1′-biphenyl]-4-yl)methyl)-4-methyltetrahydro-2H-pyran-4-carboxamido)phenyl)acrylate] | 1000 to 10000 nM
COC(=O)/C=C/c1cccc(N(Cc2ccc(-c3ccc(N(C)C)cc3)cc2)C(=O)c2ccccc2OC)c1 [13.7, (E)-Methyl 3-(3-(N-((4′-(dimethylamino)-[1,1′-biphenyl]-4-yl)methyl)-2-methoxybenzamido)phenyl)acrylate] | ≤ 1000 nM
COC(=O)/C=C/c1cccc(N(Cc2ccc(-c3ccc(N(C)C)cc3)cc2)C(=O)C2CCS(=O)(=O)CC2)c1 [13.8, (E)-Methyl 3-(3-(N-((4′-(dimethylamino)-[1,1′-biphenyl]-4-yl)methyl)-1,1-dioxidotetrahydro-2H-thiopyran-4-carboxamido)phenyl)acrylate] | > 10000 nM
COC(=O)/C=C/c1cccc(N(Cc2ccc(-c3ccc(N(C)C)cc3)cc2)C(=O)C2CCSCC2)c1 [13.9, (E)-Methyl 3-(3-(N-((4′-(dimethylamino)-[1,1′-biphenyl]-4-yl)methyl)tetrahydro-2H-thiopyran-4-carboxamido)phenyl)acrylate] | ≤ 1000 nM
COC(=O)/C=C/c1cccc(N(Cc2ccc(-c3ccc(N(C)C)cc3)cc2)C(=O)c2cccc(OC)c2)c1 [13.10, (E)-Methyl 3-(3-(N-((4′-(dimethylamino)-[1,1′-biphenyl]-4-yl)methyl)-3-methoxybenzamido)phenyl)acrylate] | 1000 to 10000 nM
COC(=O)/C=C/c1cccc(N(Cc2ccc(-c3ccc(N(C)C)cc3)cc2)C(=O)C2CN(S(C)(=O)=O)C2)c1 [13.11, (E)-Methyl 3-(3-(N-((4′-(dimethylamino)-[1,1′-biphenyl]-4-yl)methyl)-1-(methylsulfonyl)azetidine-3-carboxamido)phenyl)acrylate] | 1000 to 10000 nM
COC(=O)/C=C/c1cccc(N(Cc2ccc(-c3ccc(N(C)C)cc3)cc2)C(=O)c2ccc(OCCN3CCOCC3)cc2)c1 [13.12, (E)-Methyl 3-(3-(N-((4′-(dimethylamino)-[1,1′-biphenyl]-4-yl)methyl)-4-(2-morpholinoethoxy)benzamido)phenyl)acrylate] | 1000 to 10000 nM
COC(=O)/C=C/c1cccc(N(Cc2ccc(-c3ccc(N(C)C)cc3)cc2)C(=O)C2CCC(SC)CC2)c1 (stereo not shown) [13.13, (E)-Methyl 3-(3-(N-((4′-(dimethylamino)-[1,1′-biphenyl]-4-yl)methyl)-4-(methylthio)cyclohexanecarboxamido)phenyl)acrylate] | 1000 to 10000 nM
COC(=O)/C=C/c1cccc(N(Cc2ccc(-c3ccc(N(C)C)cc3)cc2)C(=O)[C@H]2CC[C@@H](S(C)(=O)=O)CC2)c1 [13.14, cis-(E)-Methyl 3-(3-(N-((4′-(dimethylamino)-[1,1′-biphenyl]-4-yl)methyl)-4-(methylsulfonyl)cyclohexanecarboxamido)phenyl)acrylate] | 1000 to 10000 nM
COC(=O)/C=C/c1cccc(N(Cc2ccc(-c3ccc(N(C)C)cc3)cc2)C(=O)[C@H]2CC[C@H](S(C)(=O)=O)CC2)c1 [13.15, trans-(E)-methyl 3-(3-(N-((4′-(dimethylamino)-[1,1′-biphenyl]-4-yl)methyl)-4-(methylsulfonyl)cyclohexanecarboxamido)phenyl)acrylate] | 1000 to 10000 nM
COC(=O)/C=C/c1cccc(N(Cc2ccc(-c3ccc(N(C)C)cc3)cc2)C(=O)[C@H]2CC[C@H](C(=O)O)CC2)c1 [13.16, trans-4-(((4′-(Dimethylamino)-[1,1′-biphenyl]-4-yl)methyl)(3-((E)-3-methoxy-3-oxoprop-1-en-1-yl)phenyl)carbamoyl) cyclohexanecarboxylic acid] | ≤ 1000 nM
COC(=O)/C=C/c1cccc(N(Cc2ccc(-c3ccc(N(C)C)cc3)cc2)C(=O)C2CCC(=O)NC2)c1 (stereo not shown) [13.17, (E)-Methyl 3-(3-(N-((4′-(dimethylamino)-[1,1′-biphenyl]-4-yl)methyl)-6-oxopiperidine-3-carboxamido)phenyl)acrylate] | 1000 to 10000 nM
COC(=O)/C=C/c1cccc(N(Cc2ccc(-c3ccc(N(C)C)cc3)cc2)C(=O)C2CCNC(=O)C2)c1 (stereo not shown) [13.18, (E)-Methyl 3-(3-(N-((4′-(dimethylamino)-[1,1′-biphenyl]-4-yl)methyl)-2-oxopiperidine-4-carboxamido)phenyl)acrylate] | 1000 to 10000 nM

Reference: patent US10626081B2, “Farnesoid X receptor agonists and uses thereof” (Metacrine, Inc., priority 2015, dated 2020)
